From PubChem BioAssay (NCI)
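Step 1: Grow cells in 96-well plates. Step 2: Expose to compound for 48 hours at 5 concentrations. Step 3: Interpolate endpoints linearly; if unreached, use highest concentration. At the TGI there is no net growth.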

Assays:
Test in all cases: DTP human tumour cell line panel, 48 h
U251 CNS = test system: U251 CNS
SK-OV-3 ovarian = test system: SK-OV-3 ovarian
KM12 colon = test system: KM12 colon
DMS 114 small cell lung = test system: DMS 114 small cell lung
UO-31 renal = test system: UO-31 renal
LOX IMVI melanoma = test system: LOX IMVI melanoma
OVCAR-5 ovarian = test system: OVCAR-5 ovarian
IGROV1 ovarian = test system: IGROV1 ovarian
ACHN renal = test system: ACHN renal
SR leukemia = test system: SR leukemia
NCI-H522 lung = test system: NCI-H522 lung
OVCAR-4 ovarian = test system: OVCAR-4 ovarian
HCC-2998 colon = test system: HCC-2998 colon
SK-MEL-2 melanoma = test system: SK-MEL-2 melanoma
SF-539 CNS = test system: SF-539 CNS
MOLT-4 leukemia = test system: MOLT-4 leukemia
HOP-18 NSCLC = test system: HOP-18 NSCLC
M19-MEL melanoma = test system: M19-MEL melanoma
SNB-19 CNS = test system: SNB-19 CNS
RPMI-8226 leukemia = test system: RPMI-8226 leukemia
HCT-15 colon = test system: HCT-15 colon
DLD-1 colon = test system: DLD-1 colon
A549 NSCLC = test system: A549 NSCLC
HT29 colon = test system: HT29 colon
MALME-3M melanoma = test system: MALME-3M melanoma
A498 renal = test system: A498 renal
K-562 leukemia = test system: K-562 leukemia
SN12C renal = test system: SN12C renal
HOP-62 NSCLC = test system: HOP-62 NSCLC
EKVX NSCLC = test system: EKVX NSCLC
CCRF-CEM leukemia = test system: CCRF-CEM leukemia
SF-295 CNS = test system: SF-295 CNS
NCI-H226 lung = test system: NCI-H226 lung
SNB-75 CNS = test system: SNB-75 CNS
OVCAR-3 ovarian = test system: OVCAR-3 ovarian
KM20L2 colon = test system: KM20L2 colon
M14 melanoma = test system: M14 melanoma
SNB-78 CNS = test system: SNB-78 CNS
UACC-257 melanoma = test system: UACC-257 melanoma
LXFL 529 NSCLC = test system: LXFL 529 NSCLC
UACC-62 melanoma = test system: UACC-62 melanoma
SK-MEL-28 melanoma = test system: SK-MEL-28 melanoma
SF-268 CNS = test system: SF-268 CNS
CAKI-1 renal = test system: CAKI-1 renal
NCI-H460 lung = test system: NCI-H460 lung
COLO 205 colon = test system: COLO 205 colon
SW-620 colon = test system: SW-620 colon
SK-MEL-5 melanoma = test system: SK-MEL-5 melanoma
HL-60(TB) leukemia = test system: HL-60(TB) leukemia
OVCAR-8 ovarian = test system: OVCAR-8 ovarian
NCI-H23 lung = test system: NCI-H23 lung
HCT-116 colon = test system: HCT-116 colon
HOP-92 NSCLC = test system: HOP-92 NSCLC
DMS 273 small cell lung = test system: DMS 273 small cell lung
TK-10 renal = test system: TK-10 renal
RXF 393 renal = test system: RXF 393 renal

Measured: TGI

O=C(OCCOC(=O)c1ccc2c(c1)C1(SCCS1)c1ccccc1-2)c1ccc2c(c1)C1(SCCS1)c1ccccc1-2
not listed: HOP-92 NSCLC | DMS 273 small cell lung | TK-10 renal | RXF 393 renal
> 100 µM: all other assays above

NC1C(O)C(O)C(CO)OC1n1cc(F)c(=O)[nH]c1=O (stereo not given)
not listed: UO-31 renal | IGROV1 ovarian | SF-539 CNS | M19-MEL melanoma | A498 renal | K-562 leukemia | HOP-62 NSCLC | EKVX NSCLC | OVCAR-3 ovarian | KM20L2 colon | M14 melanoma | UACC-62 melanoma | OVCAR-8 ovarian
> 100 µM: all other assays above
